The test system of experiment [1] is HUVECs. As to the kind of experiment: High-content imaging cytotoxicity in HUVECs, 24 h. It is filed as cell-based, human. Particulars: Homo sapiens, HUVEC, 24 h, HUVEC, 24 hr. A digest of the protocol:
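Point-of-departure values derive from four-parameter logistic fits of vehicle-normalized imaging phenotypes (Hoechst 33342, MitoTracker Orange, calcein AM). The fits follow 24 h exposure of HUVEC monolayers at 37°C and 5% CO2, with a top tested concentration of 100μM.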

For experiment [2], the system named is iCell cardiomyocytes (human iPSC-derived cardiomyocytes). Put plainly: High-content imaging of cytotoxicity and mitochondrial integrity in iPSC-CMs. Particulars: Homo sapiens, Cardiomyocyte, cardiomyocytes (cm). The format is cell-based. A digest of the protocol:
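Human iPSC-derived cardiomyocytes were seeded on gelatin-coated 384-well plates at 5,000 cells per well and maintained for 12 d. Test chemicals were added as 10μL of 5× solutions to final concentrations of 0.01 to 100μM. Cells were stained with Hoechst 33342 and MitoTracker™ Orange, fixed in formaldehyde, and imaged by confocal high-content microscopy at 10× magnification.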

Setting [3] is: cyto, read-out: POD huvec.cyto.24hr.
Where [4] appears, read: mito, read-out: POD huvec.mito.24hr.
Where [5] appears, read: mitoint, read-out: POD huvec.mitoint.24hr.
Where [6] appears, read: nma, read-out: POD huvec.nma.24hr.
[7] abbreviates: tc, read-out: POD huvec.tc.24hr.
Where [8] appears, read: 1.5 h, cam, 90 min, read-out: POD cm.cam.90min.
The mark [9] stands for this setting: 1.5 h, mii, 90 min, read-out: POD cm.mii.90min.
Where [10] appears, read: 1.5 h, mito, 90 min, read-out: POD cm.mito.90min.
[11] abbreviates: 1.5 h, tc, 90 min, read-out: POD cm.tc.90min.
The mark [12] stands for this setting: 24 h, cam, 24 hrs, read-out: POD cm.cam.24hrs.
The mark [13] stands for this setting: 24 h, mii, 24 hrs, read-out: POD cm.mii.24hrs.
[14] abbreviates: 24 h, mito, 24 hrs, read-out: POD cm.mito.24hrs.
Setting [15] is: 24 h, tc, 24 hrs, read-out: POD cm.tc.24hrs.

The values below come from paper PMC7377239, “Cardiovascular Effects of Polychlorinated Biphenyls and Their Major Metabolites” (Environmental Health Perspectives, 2020).

Each structure is given as a SMILES string. Read-outs that look alike come from different tables or passages of the source.

On to `Oc1ccc(-c2cccc(Cl)c2)cc1Cl` [4-OH-PCB 11], for which the minimal effective concentration came to 1.37 µM in experiment [1] (setting [3]); 1.2 µM in experiment [1] (setting [4]); 5.43 µM in experiment [1] (setting [5]); 0.99 µM in experiment [1] (setting [6]); 1.37 µM in experiment [1] (setting [7]); 27.7 µM in experiment [2] (setting [8]). The minimal effective concentration in experiment [2] (setting [9]) came to 32.7 µM; in experiment [2] (setting [10]), 40.1 µM; in experiment [2] (setting [11]), 36.2 µM; in experiment [2] (setting [12]), 8.57 µM; in experiment [2] (setting [13]) it was 43.2 µM; in experiment [2] (setting [14]), 7.94 µM. Moreover, the minimal effective concentration in experiment [2] (setting [15]) was 8.62 µM.

Take `Oc1cc(Cl)c(-c2cc(Cl)ccc2Cl)cc1Cl` [4-OH-PCB 52]: the minimal effective concentration turned out to be 1 µM in experiment [1] (setting [3]); 1.1 µM in experiment [1] (setting [4]); 2.32 µM in experiment [1] (setting [5]); 100 µM in experiment [1] (setting [6]); 1 µM in experiment [1] (setting [7]); 8.86 µM in experiment [2] (setting [8]). Moreover, the minimal effective concentration stood at 45.7 µM in experiment [2] (setting [9]); 8.61 µM in experiment [2] (setting [10]); 8.75 µM in experiment [2] (setting [11]); 32.7 µM in experiment [2] (setting [12]); 65.1 µM in experiment [2] (setting [13]); 36.7 µM in experiment [2] (setting [14]). Besides, in experiment [2] (setting [15]), the minimal effective concentration came to 41.4 µM.
